Reference: US7678787B2, “Pyrrolobenzodiazepine pyridine carboxamides and derivatives as follicle-stimulating hormone receptor antagonists” (Wyeth, priority 2005, dated 2010)
Structures can show the parent of a compound that is named as a salt.

Columns and labels:
[1] = molecular target: T1, human FSH receptor (Homo sapiens, UniProt P23945); assay: FSH receptor-dependent CRE-luciferase reporter gene assay (CHO FSH-R 6CRE-Luc cells); assay type: cell-based; settings: dose-response format in presence of EC50 of purified human FSH; * n=3, ** n=2 averages
T1 construct: host or cells: CHO-K1 (CHO FSH-R 6CRE-Luc, 1D7 cells)
T1 sequence (P23945 18-695): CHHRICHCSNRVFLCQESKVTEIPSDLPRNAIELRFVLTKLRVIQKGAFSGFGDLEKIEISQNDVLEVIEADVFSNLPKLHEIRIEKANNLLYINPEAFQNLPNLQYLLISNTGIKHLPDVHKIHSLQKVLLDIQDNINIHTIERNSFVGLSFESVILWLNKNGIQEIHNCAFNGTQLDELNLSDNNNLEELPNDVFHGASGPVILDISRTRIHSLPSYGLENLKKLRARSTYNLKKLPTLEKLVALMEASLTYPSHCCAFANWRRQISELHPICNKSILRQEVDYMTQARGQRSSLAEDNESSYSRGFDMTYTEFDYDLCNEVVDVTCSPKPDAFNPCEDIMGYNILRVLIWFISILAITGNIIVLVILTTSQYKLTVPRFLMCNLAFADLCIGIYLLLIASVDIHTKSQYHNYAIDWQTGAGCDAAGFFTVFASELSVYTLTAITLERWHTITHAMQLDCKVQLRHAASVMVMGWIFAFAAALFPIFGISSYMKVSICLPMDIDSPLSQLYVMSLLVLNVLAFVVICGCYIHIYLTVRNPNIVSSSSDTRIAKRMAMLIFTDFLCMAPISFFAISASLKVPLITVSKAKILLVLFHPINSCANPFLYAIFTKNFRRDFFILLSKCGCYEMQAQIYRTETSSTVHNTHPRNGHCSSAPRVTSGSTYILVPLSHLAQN
From the text: FOLLICLE-STIMULATING HORMONE RECEPTOR-DEPENDENT CRE-LUCIFERASE REPORTER GENE ASSAY FOR THE IDENTIFICATION OF FOLLICLE-STIMULATING HORMONE (FSH) ANTAGONISTS
A Chinese hamster ovarian cell line that stably produces the human FSH receptor and a luciferase reporter gene regulated by cAMP response elements was used to identify and determine the relative potencies of human FSH receptor antagonists. See for example, Kelton, C. A., et al. Mol. Cell. Endocrinol. 89:141-151 (1992), Tilly, J. L., et al. Endocrinology 131:799-806(1992), and George, S. E., et al. J. Biomol. Screening 2:235-240 (1997).
Compound Vehicle: Stock compounds were solubilized in an appropriate vehicle, e.g., phosphate buffered saline (PBS) or dimethyl sulfoxide (DMSO), at 30 mM. The compounds subsequently were diluted in DMSO to working dilutions of 1 and 20 or 30 mM for 2-dose testing format and 1 μM-10 mM for dose-response format. The DMSO dilutions were diluted 500-fold in sterile growth medium [D-MEM/F-12 (GIBCO/BRL; Grand Island, N.Y.) containing 15 mM HEPES, 2 mM l-glutamine, pyridoxine hydrochloride, phenol red and 5% FETALCLONE® II (HyClone Laboratories, Inc; Logan, Utah), 0.2% DMSO, 100 units penicillin G/ml, and 100 μg streptomycin sulfate/ml (GIBCO/BRL)]. The concentration of the vehicle in each of the compound dilutions was the same.
Positive Controls: Purified human FSH (>98%) was purchased from Cortex Biochem, Inc. (San Leandro, Calif.) and 3-[(2S*,5R*)-5-{[2-(1H-Indol-3-yl)-ethylcarbamoyl]-methyl}-4-oxo-2-(5-phenylethynyl-thiophen-2-yl)-thiazolidin-3-yl]-benzamide (an FSH-R thiazolidinone antagonist) was prepared by processes described by R. A. Scheuerman et al. in U.S. Pat. No. 6,426,357 (Affymax).
The CHO FSH-R 6CRE-Luc cells (1D7 cells) were obtained from Affymax (Palo Alto, Calif.). These Chinese hamster ovary cells (CHO-K1) were engineered genetically to stably express the recombinant human FSH receptor gene and a luciferase reporter gene under the regulation of 6 copies of a cAMP response element. The cells were plated one day prior to treatment into 96-well white opaque plates at a density of 50,000 cells/100 μl/well in growth medium. On the day of treatment, the growth medium was removed from the wells by aspiration and 50 μl of fresh growth medium was added to each well. The cells were incubated at 37° C. in a humidified incubator with 5% CO2/95% air.
The treated cells were incubated for 4 hours at 37° C. in a humidified incubator with 5% CO2/95% air. At the end of the incubation period, luciferase activity was measured by chemiluminescence using a commercially available kit (LucScreen, Tropix, Inc., Bedford, Mass.) according to the manufacturer's specifications, except that Buffer 1 and Buffer 2 were mixed together in equal proportion prior to the addition of 100 μl of the combined reagents to each well. Chemiluminescence was detected using a luminometer (EG & G Berthold Microlumat LB 96 P, Wallac, Gaithersburg, Md.) with chemiluminescence measured for 1 sec/well. Background luminescence was measured for each well prior to the addition of the LucScreen reagent.
In the 96-well 2-dose format, each compound was tested in duplicate at each dose. […] One plate was used to test a maximum of 22 compounds.
The EC50 of purified human FSH alone was tested in triplicate with each test compound. The doses chosen to test each compound were extrapolated from the initial 2-dose screening process. Along with the test compounds, purified human FSH also was tested in a dose response (0.03, 0.1, 0.3, 1, 3, 10, and 30 ng/ml) for a positive control and quality control. One plate was used for 3 test compounds and the FSH positive control.
Luciferase activity is expressed as relative light units/sec/well. Luciferase activity in antagonist was compared to the appropriate negative and positive controls. For 2-dose testing, results are reported as luciferase activity and are expressed as percent inhibition of the response obtained from the EC50 of FSH.

SMILES | melting point | IC50 [1] [µM]
Cc1ncc(CNC(=O)c2ccc3n2Cc2ccccc2N(C(=O)CSc2ccc(Br)cc2)C3)c(CO)c1O | 199 to 200 °C | –
CN(C)C(=O)c1ccccc1-c1ccc(C(=O)N2Cc3ccc(C(=O)NCc4cccnc4)n3Cc3ccccc32)cc1 | 206 to 207 °C | –
COc1cc(C(=O)N2Cc3ccc(C(=O)NCc4c(CO)cnc(C)c4O)n3Cc3ccccc32)ccc1-c1ccccc1C (as salt: hydrochloride) (hydrate or solvate) | 179 °C | –
O=C(NCc1cccnc1)c1ccc2n1Cc1ccccc1N(C(=O)CSc1ccc(Br)cc1)C2 (as salt: hydrochloride) (hydrate or solvate) [Example 141] | 136 to 137 °C | –
CSc1ccccc1-c1ccc(C(=O)N2Cc3ccc(C(=O)NCc4cccnc4)n3Cc3ccccc32)cc1 (hydrate or solvate) [Example 14, 10-{[2′-(METHYLTHIO)-1,1′-BIPHENYL-4-YL]CARBONYL}-N-(PYRIDIN-3-YLMETHYL)-10,11-DIHYDRO-5H-PYRROLO[2,1-C][1,4]BENZODIAZEPINE-3-CARBOXAMIDE 0.67 HYDRATE] | 172 to 175 °C | –
NS(=O)(=O)c1cc(C(=O)N2Cc3ccc(C(=O)NCc4cccnc4)n3Cc3ccccc32)ccc1N1CCOCC1 (hydrate or solvate) [Example 114, 10-[3-(AMINOSULFONYL)-4-MORPHOLIN-4-YLBENZOYL]-N-(PYRIDIN-3-YLMETHYL)-10,11-DIHYDRO-5H-PYRROLO[2,1-C][1,4]BENZODIAZEPINE-3-CARBOXAMIDE HEMIHYDRATE] | 159 to 161 °C | –
COc1ccccc1-c1ccc(C(=O)N2Cc3ccc(C(=O)NCC(c4cccnc4)N4CCCC4)n3Cc3ccccc32)cc1 (stereo not shown) [Example 9, 10-[(2′-METHOXY-1,1′-BIPHENYL-4-YL)CARBONYL]-N-(2-PYRIDIN-3-YL-2-PYRROLIDIN-1-YLETHYL)-10,11-DIHYDRO-5H-PYRROLO[2,1-C][1,4]BENZODIAZEPINE-3-CARBOXAMIDE] | – | 17
Cc1cccc(C)c1-c1ccc(C(=O)N2Cc3ccc(C(=O)NCc4cccnc4)n3Cc3ccccc32)cc1 [Example 12] | 216 to 218 °C (dec.) | 16.4
NS(=O)(=O)c1ccccc1-c1ccc(C(=O)N2Cc3ccc(C(=O)NCc4cccnc4)n3Cc3ccccc32)cc1 [Example 16] | 153 to 156 °C | 0.994
O=C(NCc1cccnc1)c1ccc2n1Cc1ccccc1N(C(=O)c1ccc(-c3ccccc3Cc3nnn[nH]3)cc1)C2 [Example 19] | 164 to 167 °C | 2.4
CC(=O)c1ccc(-c2ccc(C(=O)N3Cc4ccc(C(=O)NCc5cccnc5)n4Cc4ccccc43)cc2C)cc1 [Example 26] | – | > 30
O=C(O)Cc1ccccc1-c1ccc(C(=O)N2Cc3ccc(C(=O)NCc4cccnc4)n3Cc3ccccc32)cc1 [Example 35, (4′-{[3-{[(PYRIDIN-3-YLMETHYL)AMINO]CARBONYL}-5H-PYRROLO[2,1-C][1,4]BENZODIAZEPIN-10(11H)-YL]CARBONYL}-1,1′-BIPHENYL-2-YL)ACETIC ACID] | – | 31
O=C(NCc1cccnc1)c1ccc2n1Cc1ccccc1N(C(=O)c1ccc(-c3ccccc3CN3CCCC3)cc1)C2 [Example 41] | 210 to 212 °C | 25.1
CCN(CC)C(=O)Cc1ccccc1-c1ccc(C(=O)N2Cc3ccc(C(=O)NCc4cccnc4)n3Cc3ccccc32)cc1 [Example 67] | – | 29.1
O=C(NCc1cccnc1)c1ccc2n1Cc1ccccc1N(C(=O)c1ccc(Oc3ccccc3)cc1)C2 [Example 101] | – | 12
NS(=O)(=O)c1cc(C(=O)N2Cc3ccc(C(=O)NCc4cccnc4)n3Cc3ccccc32)ccc1N1CCOCC1 [Example 114, 10-[3-(AMINOSULFONYL)-4-MORPHOLIN-4-YLBENZOYL]-N-(PYRIDIN-3-YLMETHYL)-10,11-DIHYDRO-5H-PYRROLO[2,1-C][1,4]BENZODIAZEPINE-3-CARBOXAMIDE HEMIHYDRATE] | – | > 30
COc1ccccc1CNc1ccc(C(=O)N2Cc3ccc(C(=O)NCc4cccnc4)n3Cc3ccccc32)cn1 [Example 120] | – | 49.6
O=C(NCc1cccnc1)c1ccc2n1Cc1ccccc1N(C(=O)c1ccc(NCCc3ccccc3)nc1)C2 [Example 126] | – | 18.7
O=C(NCc1cccnc1)c1ccc2n1Cc1ccccc1N(C(=O)c1ccc(NCc3cccnc3)nc1)C2 [Example 131] | – | 15.8

Continued, values first:

melting point | IC50 [1] [µM] | SMILES
– | 15 | Cc1ccc(-c2ccc(C(=O)N3Cc4ccc(C(=O)NCc5cccnc5)n4Cc4ccccc43)cc2C)cc1 [Example 22]
– | 22.7 | Cc1ccccc1-c1cccc(C(=O)N2Cc3ccc(C(=O)NCc4cccnc4)n3Cc3ccccc32)c1 [Example 27]
197 °C | – | O=C(NCc1cccnc1)c1ccc2n1Cc1ccccc1N(C(=O)c1ccccc1)C2 [Example 76]
– | 18.8 | Cc1ccc(C(=O)N2Cc3ccc(C(=O)NCc4cccnc4)n3Cc3ccccc32)cc1 [Example 77]
– | 17.8 | O=C(NCc1cccnc1)c1ccc2n1Cc1ccccc1N(C(=O)c1ccc(C(F)(F)F)cc1)C2 [Example 79]
– | 16.6 | Cc1cccc(C(=O)N2Cc3ccc(C(=O)NCc4cccnc4)n3Cc3ccccc32)c1 [Example 83]
– | 9.9 | O=C(NCc1cccnc1)c1ccc2n1Cc1ccccc1N(C(=O)c1cccc(C(F)(F)F)c1)C2 [Example 92]
169 to 171 °C | – | O=C(NCc1cccnc1)c1ccc2n1Cc1ccccc1N(C(=O)c1ccc3c(c1)OCO3)C2 [Example 96]
– | 31.5 | O=C(NCc1cccnc1)c1ccc2n1Cc1ccccc1N(C(=O)c1ccc(F)c(F)c1)C2 [Example 100]
– | > 30 | O=C(NCc1cccnc1)c1ccc2n1Cc1ccccc1N(C(=O)c1ccccn1)C2 [Example 116]
– | 27.7 | O=C(NCc1cccnc1)c1ccc2n1Cc1ccccc1N(C(=O)c1cc(Cl)sc1Cl)C2 [Example 118]
– | 14.5 | CCCCNc1ccc(C(=O)N2Cc3ccc(C(=O)NCc4cccnc4)n3Cc3ccccc32)cn1 [Example 133]
– | 11.3 | O=C(NCc1cccnc1)c1ccc2n1Cc1ccccc1N(C(=O)c1ccc3ccccc3c1)C2 [Example 146]
116 to 119 °C | – | O=C(NCc1cccnc1)c1ccc2n1Cc1ccccc1N(C(=O)c1ccc3c(c1)Cc1ccccc1-3)C2 [Example 147]
